Read-outs that look alike come from different tables or passages of the source.
Legend:
M1 muscarinic receptor = target: T1, M1 muscarinic receptor (Homo sapiens, UniProt P11229); test: Functional mobilization of intracellular calcium (FLIPR) in M1-CHO cells; assay type: cell-based
T1 construct: expressed in transfected cells; host or cells: CHO (M1-CHO)
T1 sequence (P11229 1-460): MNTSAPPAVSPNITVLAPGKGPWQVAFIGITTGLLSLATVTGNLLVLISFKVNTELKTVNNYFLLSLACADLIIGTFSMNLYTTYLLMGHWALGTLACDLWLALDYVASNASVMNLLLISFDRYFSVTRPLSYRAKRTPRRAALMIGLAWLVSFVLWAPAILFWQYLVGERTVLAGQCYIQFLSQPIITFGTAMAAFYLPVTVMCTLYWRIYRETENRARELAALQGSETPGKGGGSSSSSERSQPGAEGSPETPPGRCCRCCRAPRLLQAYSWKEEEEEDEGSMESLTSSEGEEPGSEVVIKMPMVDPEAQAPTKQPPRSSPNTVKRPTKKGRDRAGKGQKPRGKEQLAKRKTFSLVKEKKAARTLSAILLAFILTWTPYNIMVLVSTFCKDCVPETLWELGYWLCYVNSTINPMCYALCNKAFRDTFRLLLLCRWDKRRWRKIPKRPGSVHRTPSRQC
Summary of the method: (§1)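 Two modes: direct compound addition for agonism, or 15 min compound pre-incubation (or co-application) before carbachol at EC80 for inhibition. Calcium signal from Fluo-3 AM or Calcium 3 dye in CHO cells, 1 mM probenecid, pH 7.4, read 60 sec at 488/540 nm; DMSO 0.5% final.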

M4 muscarinic receptor = target: T2, M4 muscarinic receptor (Homo sapiens, UniProt P08173); test: Functional mobilization of intracellular calcium (FLIPR) in M4-CHO cells; assay type: cell-based
T2 construct: expressed in transfected cells; host or cells: CHO (M4-CHO)
T2 sequence (P08173 1-479): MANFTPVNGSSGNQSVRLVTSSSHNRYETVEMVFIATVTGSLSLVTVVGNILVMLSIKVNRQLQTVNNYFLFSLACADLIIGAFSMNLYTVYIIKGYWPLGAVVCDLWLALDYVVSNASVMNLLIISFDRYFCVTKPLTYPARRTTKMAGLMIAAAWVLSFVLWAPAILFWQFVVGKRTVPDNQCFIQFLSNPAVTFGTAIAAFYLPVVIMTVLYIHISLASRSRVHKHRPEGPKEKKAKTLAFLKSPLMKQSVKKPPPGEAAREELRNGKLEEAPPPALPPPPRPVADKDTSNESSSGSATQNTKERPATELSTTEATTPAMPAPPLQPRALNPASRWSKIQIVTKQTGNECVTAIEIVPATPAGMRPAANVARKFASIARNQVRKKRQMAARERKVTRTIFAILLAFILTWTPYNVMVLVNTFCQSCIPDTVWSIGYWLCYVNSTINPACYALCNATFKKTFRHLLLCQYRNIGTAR
Summary of the method: as §1

[1] = M1 receptor, calcium mobilization
[2] = M1 receptor, calcium mobilization, read-out: M1 Efficacy
[3] = M4 receptor, calcium mobilization
[4] = M4 receptor, calcium mobilization, read-out: M4 Efficacy
[5] = Table 4, 100% efficacy is the maximum response obtained with the Carbachol control
[6] = Table 4, modulating M1 receptor
[7] = Table 4, modulating M4 receptor
[8] = 100% efficacy is the maximum response obtained with the Carbachol control, Table 5
[9] = Table 4, M1 receptor, calcium mobilization (FLIPR)
[10] = Table 4, M4 receptor, calcium mobilization (FLIPR)

CCOC(=O)N1CCC(N2CCC3(CC2)CN(C(C)=O)c2ccc(OC)cc23)CC1 [compound 340]
M1 Activity (M1 muscarinic receptor; [1]): xx (activity was measured to be between 0.1 μM and 1.0 μM)
Emax (M1 muscarinic receptor; [2]): < 65%
M4 Activity (M4 muscarinic receptor; [3]): x (activity was measured to be greater than 1.0 μM)
Emax (M4 muscarinic receptor; [4]): < 65%

CCOC(=O)N1CCC(N2CCC3(CC2)CN(C(=O)c2ccccc2C)c2ccc(F)cc23)CC1 [compound 53]
M1 Activity (M1 muscarinic receptor; [1]): xx (activity was measured to be between 0.1 μM and 1.0 μM)
Emax (M1 muscarinic receptor; [2]): < 65%
M4 Activity (M4 muscarinic receptor; [3]): xx (activity was measured to be between 0.1 μM and 1.0 μM)
Emax (M4 muscarinic receptor; [4]): 65 to 85%

Clc1ccc2c(c1)C1(CCN(CC3CCCCC3)CC1)CN2 [compound 157]
M1 Activity (M1 muscarinic receptor; [1]): xxx (activity was measured to be less than 0.1 μM)
Emax (M1 muscarinic receptor; [2]): 65 to 85%
M4 Activity (M4 muscarinic receptor; [3]): x (activity was measured to be greater than 1.0 μM)
Emax (M4 muscarinic receptor; [4]): > 85%

O=C(O[C@@H]1CCOC1)N1CC2(CCN(C3CC4CCC(C3)N4C(=O)O[C@H]3CCOC3)CC2)c2cc(F)ccc21 (some centres unmarked) [compound 93]
M1 Activity (M1 muscarinic receptor; [1]): xx (activity was measured to be between 0.1 μM and 1.0 μM)
M1 Efficacy (M1 muscarinic receptor; [1]): x (efficacy was calculated to be less than 65%)
M4 Activity (M4 muscarinic receptor; [3]): xx (activity was measured to be between 0.1 μM and 1.0 μM)
M4 Efficacy (M4 muscarinic receptor; [3]): x (efficacy was calculated to be less than 65%)

COCCOC(=O)N1CCC(CN2CCC3(CC2)CN(C(C)=O)c2ccc(C)cc23)CC1 [compound 419]
EC50 (M1 muscarinic receptor; M1-CHO cells, calcium mobilization (FLIPR)): > 1000 nM
Emax (M1 muscarinic receptor; M1-CHO cells, calcium mobilization (FLIPR), read-out: M1 Efficacy): < 65%
EC50 (M4 muscarinic receptor; M4-CHO cells, calcium mobilization (FLIPR)): > 1000 nM
Emax (M4 muscarinic receptor; M4-CHO cells, calcium mobilization (FLIPR), read-out: M4 Efficacy): < 65%

COC1CCCCC1N1CCC2(CC1)CN(C(C)=O)c1ccc(F)cc12 (centres unmarked) [compound 512]
Emax (M1 muscarinic receptor; [5]): < 25%
M1 Activity (M1 muscarinic receptor; [6]): x (activity was measured to be greater than 5.0 μM)
Emax (M4 muscarinic receptor; [5]): < 25%
M4 Activity (M4 muscarinic receptor; [7]): x (activity was measured to be greater than 5.0 μM)

CN(C)C(=O)N1CC2(CCN(C3CCN(c4cncnc4)CC3)CC2)c2cc(F)ccc21 [compound 1033]
Emax (M1 muscarinic receptor; [8]): 25 to 100%
EC50 (M1 muscarinic receptor; CHO cells expressing M1, calcium mobilization, Table 5): 2000 to 10000 nM
Emax (M4 muscarinic receptor; [8]): 25 to 100%
EC50 (M4 muscarinic receptor; CHO cells expressing M4, calcium mobilization, Table 5): < 2000 nM

CCOC(=O)N1CCC(CN2CCC3(CC2)COc2ccc(Cl)cc23)CC1 [compound 176]
M1 Activity (M1 muscarinic receptor; [1]): xx (activity was measured to be between 0.1 μM and 1.0 μM)
Emax (M1 muscarinic receptor; [2]): > 85%
M4 Activity (M4 muscarinic receptor; [3]): xx (activity was measured to be between 0.1 μM and 1.0 μM)
Emax (M4 muscarinic receptor; [4]): 65 to 85%

CCOC(=O)N1CCC(N2CCC3(CC2)CN(C(C)=O)c2ccc(C(C)C)cc23)CC1 [compound 872]
Emax (M1 muscarinic receptor; [5]): 25 to 100%
M1 Activity (M1 muscarinic receptor; [9]): xxx (activity was measured to be less than 2.0 μM)
Emax (M4 muscarinic receptor; [5]): 25 to 100%
M4 Activity (M4 muscarinic receptor; [10]): xxx (activity was measured to be less than 2.0 μM)

Cc1ccc2c(c1)C1(CCN(C3CC4CCC3C4)CC1)CN2C(=O)c1ccncc1 (centres unmarked) [compound 840]
Emax (M1 muscarinic receptor; [5]): < 25%
M1 Activity (M1 muscarinic receptor; [9]): x (activity was measured to be greater than 5.0 μM)
Emax (M4 muscarinic receptor; [5]): < 25%
M4 Activity (M4 muscarinic receptor; [10]): x (activity was measured to be greater than 5.0 μM)

CC(=O)NC1CCC2(CCN(CCC3CCN(C(=O)OCC(C)C)CC3)CC2)c2ccccc21 (centres unmarked) [compound 962]
Emax (M1 muscarinic receptor; [5]): < 25%
M1 Activity (M1 muscarinic receptor; [9]): x (activity was measured to be greater than 5.0 μM)
Emax (M4 muscarinic receptor; [5]): < 25%
M4 Activity (M4 muscarinic receptor; [10]): x (activity was measured to be greater than 5.0 μM)

CN(C)C(=O)N1CC2(CCN(C3CCN(c4nccs4)CC3)CC2)c2cc(F)ccc21 [compound 957]
Emax (M1 muscarinic receptor; [5]): 25 to 100%
M1 Activity (M1 muscarinic receptor; [9]): xxx (activity was measured to be less than 2.0 μM)
Emax (M4 muscarinic receptor; [5]): 25 to 100%
M4 Activity (M4 muscarinic receptor; [10]): xxx (activity was measured to be less than 2.0 μM)

CN(C)C(=O)N[C@H]1CCC2(CCN([C@@H]3C[C@@H]4CC[C@H]3C4)CC2)c2ccccc21 [compound 789]
Emax (M1 muscarinic receptor; [5]): 25 to 100%
M1 Activity (M1 muscarinic receptor; [6]): x (activity was measured to be greater than 5.0 μM)
Emax (M4 muscarinic receptor; [5]): 25 to 100%
M4 Activity (M4 muscarinic receptor; [7]): x (activity was measured to be greater than 5.0 μM)

O=C(O[C@@H]1CCOC1)N1C2CCC1CC(N1CCC3(CC1)C(=O)Nc1ccccc13)C2 (some centres unmarked) [compound 336]
M1 Activity (M1 muscarinic receptor; [1]): x (activity was measured to be greater than 1.0 μM)
Emax (M1 muscarinic receptor; [2]): < 65%
M4 Activity (M4 muscarinic receptor; [3]): x (activity was measured to be greater than 1.0 μM)
Emax (M4 muscarinic receptor; [4]): < 65%

CCOC(=O)N1C2CCC1CC(N1CCC3(CCCc4ccccc43)CC1)C2 (centres unmarked) [compound 484]
Emax (M1 muscarinic receptor; [5]): 25 to 100%
M1 Activity (M1 muscarinic receptor; [6]): xxx (activity was measured to be less than 2.0 μM)
Emax (M4 muscarinic receptor; [5]): 25 to 100%
M4 Activity (M4 muscarinic receptor; [7]): xxx (activity was measured to be less than 2.0 μM)

C1=C[C@H]2C[C@H]1C[C@H]2CN1CCC2(CCc3ccccc32)CC1 [compound 313]
M1 Activity (M1 muscarinic receptor; [1]): x (activity was measured to be greater than 1.0 μM)
Emax (M1 muscarinic receptor; [2]): < 65%
M4 Activity (M4 muscarinic receptor; [3]): x (activity was measured to be greater than 1.0 μM)
Emax (M4 muscarinic receptor; [4]): < 65%

O=C(N[C@H]1CC2(CCN([C@@H]3C[C@H]4CC[C@@H]3C4)CC2)c2ccccc21)N1CCCC1 [compound 487]
Emax (M1 muscarinic receptor; [5]): < 25%
M1 Activity (M1 muscarinic receptor; [6]): x (activity was measured to be greater than 5.0 μM)
Emax (M4 muscarinic receptor; [5]): 25 to 100%
M4 Activity (M4 muscarinic receptor; [7]): xxx (activity was measured to be less than 2.0 μM)

CCOC(=O)N1CCC(N2CCC3(CC2)CN(C(=O)N(C)C)c2ccc(F)cc23)CC1 [compound 39]
M1 Activity (M1 muscarinic receptor; [1]): xxx (activity was measured to be less than 0.1 μM)
Emax (M1 muscarinic receptor; [2]): 65 to 85%
M4 Activity (M4 muscarinic receptor; [3]): xx (activity was measured to be between 0.1 μM and 1.0 μM)
Emax (M4 muscarinic receptor; [4]): > 85%

O=C1CCCN1[C@H]1CCC2(CCN([C@H]3CC4CC[C@H](C4)C3)CC2)c2ccccc21 [compound 854]
Emax (M1 muscarinic receptor; [5]): 25 to 100%
M1 Activity (M1 muscarinic receptor; [9]): xxx (activity was measured to be less than 2.0 μM)
Emax (M4 muscarinic receptor; [5]): 25 to 100%
M4 Activity (M4 muscarinic receptor; [10]): xxx (activity was measured to be less than 2.0 μM)

CCOC(=O)N1CCC(CN2CCC3(CC2)CN(C(C)=O)c2ccc(C(C)C)cc23)CC1 [compound 555]
Emax (M1 muscarinic receptor; [5]): 25 to 100%
M1 Activity (M1 muscarinic receptor; [6]): xxx (activity was measured to be less than 2.0 μM)
Emax (M4 muscarinic receptor; [5]): 25 to 100%
M4 Activity (M4 muscarinic receptor; [7]): xx (activity was measured to be between 2.0 μM and 5.0 μM)

CC(=O)N1CC2(CCN(C[C@H]3CCN(C(=O)OC(C)C)C3)CC2)c2ccccc21 [compound 864]
Emax (M1 muscarinic receptor; [5]): < 25%
M1 Activity (M1 muscarinic receptor; [9]): x (activity was measured to be greater than 5.0 μM)
Emax (M4 muscarinic receptor; [5]): < 25%
M4 Activity (M4 muscarinic receptor; [10]): x (activity was measured to be greater than 5.0 μM)

CCOC(=O)N1CCC(N2CCC3(CC2)CN(C(C)=O)c2ccc(-c4ccc(C)cc4)cc23)CC1 [compound 58]
M1 Activity (M1 muscarinic receptor; [1]): xxx (activity was measured to be less than 0.1 μM)
Emax (M1 muscarinic receptor; [2]): 65 to 85%
M4 Activity (M4 muscarinic receptor; [3]): xx (activity was measured to be between 0.1 μM and 1.0 μM)
Emax (M4 muscarinic receptor; [4]): 65 to 85%

C#CCCOC(=O)N1CCC(N2CCC3(CC2)CN(C(C)=O)c2ccccc23)CC1 [compound 989]
Emax (M1 muscarinic receptor; [5]): 25 to 100%
M1 Activity (M1 muscarinic receptor; [9]): xxx (activity was measured to be less than 2.0 μM)
Emax (M4 muscarinic receptor; [5]): < 25%
M4 Activity (M4 muscarinic receptor; [10]): x (activity was measured to be greater than 5.0 μM)

COCCOC(=O)N1CCC(N2CCC3(CC2)CN(C(C)=O)c2ccc(C)cc23)CC1 [compound 293]
M1 Activity (M1 muscarinic receptor; [1]): xx (activity was measured to be between 0.1 μM and 1.0 μM)
Emax (M1 muscarinic receptor; [2]): > 85%
M4 Activity (M4 muscarinic receptor; [3]): xxx (activity was measured to be less than 0.1 μM)
Emax (M4 muscarinic receptor; [4]): > 85%

CC(=O)NC1CCC2(CCN(C3CCCCC3)CC2)c2ccccc21 (centres unmarked) [compound 716]
Emax (M1 muscarinic receptor; [5]): 25 to 100%
M1 Activity (M1 muscarinic receptor; [6]): xxx (activity was measured to be less than 2.0 μM)
Emax (M4 muscarinic receptor; [5]): 25 to 100%
M4 Activity (M4 muscarinic receptor; [7]): xxx (activity was measured to be less than 2.0 μM)

CC(=O)CN1CC2(CCN([C@@H]3C[C@H]4CCC3C4)CC2)c2cc(C)ccc21 [compound 878]
Emax (M1 muscarinic receptor; [5]): 25 to 100%
M1 Activity (M1 muscarinic receptor; [9]): xxx (activity was measured to be less than 2.0 μM)
Emax (M4 muscarinic receptor; [5]): 25 to 100%
M4 Activity (M4 muscarinic receptor; [10]): xxx (activity was measured to be less than 2.0 μM)

— patent publication US7786141B2 (Vertex Pharmaceuticals Incorporated, priority 2004, dated 2010)
